The values below come from patent US12207654B2, “Bactericidal agent for agricultural or horticultural use, plant disease control method, and product for plant disease control use” (Kureha Corporation, priority 2019, dated 2025).

Where “and” joins values, the source holds several entries; their conditions need not be identical. Equal values may be shown once.

For test [1], the system named is Alternaria alternata apple pathotype. Briefly: In vitro antimicrobial activity test on PDA plate media (colony diameter). The format is cell-based. The conditions noted are these: used alone.
Test [2] concerns Colletotrichum lindemuthianum. Briefly: In vitro antimicrobial activity test in 96-well microplate (absorbance at 620 nm). The test is classed as cell-based. The conditions noted are these: used alone.
Test [3] has as its system Pyrenophola teres. Put plainly: In vitro antimicrobial activity test on PDA plate media (colony diameter). To be noted: read-out: Actual fungal growth inhibition rate (%).
Test [4] concerns Glomerella cingulata. The description is as above. The test is classed as cell-based.
For test [5], the system named is Fusarium fujikuroi. The description is as above. The format is cell-based. To be noted: used alone.
Test [6] relates to Pyrenophora graminea. Described as above. The test is classed as cell-based. The conditions noted are these: used alone.
Test [7] has as its system Fusarium graminearum. Briefly: microbe, parasite or virus in culture. The test is classed as cell-based.
The subject of test [8] is Cercospora beticola. Put plainly: In vitro antimicrobial activity test in 96-well microplate (absorbance at 620 nm). The test is classed as cell-based. The conditions noted are these: used alone.
Test [9] deals with wheat leaf rust (Puccinia recondita). Put plainly: Controlling effect test against wheat leaf rust (foliar spray on potted wheat seedlings). The test is classed as in vivo. The conditions noted are these: sprayed alone.
Test [10] deals with Gaeumannomyces graminis. Briefly: In vitro antimicrobial activity test on PDA plate media (colony diameter). The test is classed as cell-based. The conditions noted are these: used alone.
Test [11] deals with Microdocum nivale. The description is as above. The test is classed as cell-based. To be noted: used alone.
Test [12] relates to Penicillium italicum. The description is as above. The test is classed as cell-based. The conditions noted are these: Penicillium italicum.
Where [13] appears, read: Colletotrichum gloeosporioides, used alone, 0.50 ppm, read-out: Actual fungal growth inhibition rate (%).
[14] abbreviates: Fusarium fujikuroi, read-out: Actual fungal growth inhibition rate (%).
[15] abbreviates: Pyrenophora graminea, 0.50 ppm, read-out: Actual fungal growth inhibition rate (%).
Setting [16] is: Gaeumannomyces graminis, 0.03 ppm, read-out: Actual fungal growth inhibition rate (%).
Setting [17] is: Gaeumannomyces graminis, 0.13 ppm, read-out: Actual fungal growth inhibition rate (%).

One may read the inhibition as the drop in the measured response relative to a control, in per cent. Regarding `COC(=O)C(O)(Cn1cncn1)c1ccc(Oc2ccc(Cl)cc2)cc1Cl` (centres unmarked) [Azole derivative I-1, methyl 2-hydroxy-2-(2-chloro-4-(4-chlorophenoxy)phenyl)-3-(1H-1,2,4-triazole-1-yl)propanoate], the inhibition at 0.01 ppm in test [1] (Alternaria alternata, 0.01 ppm, read-out: Actual fungal growth inhibition rate (%)) was 0%; in [4] (Colletotrichum gloeosporioides, used alone, 0.01 ppm, read-out: Actual fungal growth inhibition rate (%)), 0%; in test [5] (setting [14]), 0%; in [6] (Pyrenophora graminea, 0.01 ppm, read-out: Actual fungal growth inhibition rate (%)) it was 37%. Also, the inhibition at 0.03 ppm in test [1] (Alternaria alternata, 0.03 ppm, read-out: Actual fungal growth inhibition rate (%)) came to 0%; in test [4] (Colletotrichum gloeosporioides, used alone, 0.03 ppm, read-out: Actual fungal growth inhibition rate (%)) it was 9%; in test [5] (Fusarium fujikuroi, 0.03 ppm, read-out: Actual fungal growth inhibition rate (%)), 4%; in test [6] (Pyrenophora graminea, 0.03 ppm, read-out: Actual fungal growth inhibition rate (%)) it was 71%; in [10] (setting [16]) it was 31%. The “Actual fungal growth inhibition rate (%)” value in test [1] (0.13 ppm) is 1%; in test [4] (used alone, 0.50 ppm) it was 75%; in test [6] (0.03 ppm), 70% and 68%; in test [6] (0.13 ppm) it was 81% and 80% and 57% and 82%; in test [6] (0.50 ppm) it was 95% and 93%; in [10] (0.03 ppm), 28%. Moreover, the “Actual fungal growth inhibition rate (%)” value in [10] (0.13 ppm) was found to be 93%. Also, the inhibition at 0.1 ppm in test [2] (Colletotrichum lindemuthianum, 0.10 ppm, read-out: Actual growth inhibition rate) stood at 0%. Moreover, the inhibition at 0.25 ppm in test [3] is 48%; in test [7] (Fusarium graminearum, read-out: Actual fungal growth inhibition rate (%)) it was 0%. The inhibition at 0.13 ppm in test [4] (Colletotrichum gloeosporioides, used alone, 0.13 ppm, read-out: Actual fungal growth inhibition rate (%)) stood at 49%; in test [10] (setting [17]), 94%. Moreover, the inhibition at 0.5 ppm came out at 77% in test [4] (setting [13]); 59% in [5] (Fusarium fujikuroi, 0.50 ppm, read-out: Actual fungal growth inhibition rate (%)); 94% in [6] (setting [15]); 6% in [8] (Cercospora beticola, 0.5 ppm, read-out: Actual growth inhibition rate). The inhibition at 0.02 ppm in [8] (Cercospora beticola, 0.02 ppm, read-out: Actual growth inhibition rate) was 0%. The inhibition at 2.5 ppm in [8] (Cercospora beticola, 2.5 ppm, read-out: Actual growth inhibition rate) is 99%. Besides, the Actual controlling rate in test [9] (0.63 g/ha) was 16% and 11%; in [9] (1.25 g/ha) it was 40% and 67%; in [9] (2.5 g/ha) it was 83% and 98%.

Turning to `COC(=O)C(O)(Cn1cncn1)c1ccc(Oc2ccc(Cl)cc2)cc1Br` (centres unmarked) [Azole derivative I-228], the “Actual fungal growth inhibition rate (%)” value in test [4] (Glomerella cingulata, single chemical at 0.01 ppm) was 0%; in test [4] (Glomerella cingulata, single chemical at 0.03 ppm), 16%; in test [4] (used alone, 0.01 ppm) it was 2%; in test [4] (used alone, 0.03 ppm), 12%; in test [4] (used alone, 0.50 ppm), 82%; in [5] (0.50 ppm), 21%. Moreover, the “Actual fungal growth inhibition rate (%)” value is recorded as 56% in test [11] (1.25 ppm); 86% in [11] (5.00 ppm); 84% in test [6] (0.50 ppm); 56% in test [12] (single chemical at 0.13 ppm); 39% in test [7]; 89% in test [10] (0.13 ppm). Moreover, the figures for the “Actual fungal growth inhibition rate (%)” value in test [10] (0.31 ppm), in test [10] (1.25 ppm) and in test [10] (5.00 ppm) were 63%, 67% and 71%, respectively.

With `COC(=O)Nc1nc2ccccc2[nH]1` [Carbendazim, carbendazim], in test [3], the inhibition at 0.625 ppm is 0%, the inhibition at 2.5 ppm was determined as 6%, the inhibition at 10 ppm was 13% and the inhibition at 40 ppm amounted to 14%.

For the compound `Cc1cccc(-n2nnn(C)c2=O)c1COc1ccn(-c2ccc(Cl)cc2)n1` [Metyltetraprole, metyltetraprole], the “Actual growth inhibition rate” value in [2] (0.08 ppm) is reported as 6%; in [2] (0.4 ppm) it was 73%; in test [2] (2.0 ppm), 91%; in [8] (0.08 ppm) it was 72%. For the same compound, the “Actual fungal growth inhibition rate (%)” value in [6] (0.001 ppm) is given as 0%.

On to `CON=C(C(=O)OC)c1ccccc1CON=C(C)c1cccc(C(F)(F)F)c1` [Trifloxystrobin, trifloxystrobin, reference compound], for which the inhibition at 0.13 ppm in test [1] (Alternaria alternata, 0.13 ppm, read-out: Actual fungal growth inhibition rate (%)) came to 48%; in test [6] (Pyrenophora graminea, 0.13 ppm, read-out: Actual fungal growth inhibition rate (%)), 54%; in [10] (setting [17]) it was 11%. In addition, the inhibition at 0.5 ppm in [4] (setting [13]) came out at 46%; in test [6] (setting [15]) it was 54%; in [12] (used alone, 0.50 ppm, read-out: Actual fungal growth inhibition rate (%)), 90%; in [10] (Gaeumannomyces graminis, 0.50 ppm, read-out: Actual fungal growth inhibition rate (%)), 15%. The inhibition at 0.002 ppm in [5] (Fusarium fujikuroi, 0.002 ppm, read-out: Actual fungal growth inhibition rate (%)) turned out to be 0%; in test [10] (Gaeumannomyces graminis, 0.002 ppm, read-out: Actual fungal growth inhibition rate (%)), 8%. Besides, the inhibition at 0.01 ppm in test [5] (setting [14]) amounted to 10%. For the same compound, the inhibition at 0.03 ppm in test [11] (0.03 ppm, read-out: Actual fungal growth inhibition rate (%)) worked out at 65%; in [10] (setting [16]), 5%. In addition, the “Actual fungal growth inhibition rate (%)” value in test [6] (0.50 ppm) was 55%; in [10] (0.50 ppm), 9%.
